In the supplement of paper PMC11061612:

How the values were obtained:
Assay in all cases: combination Emax (second highest fraction inhibited in the dose matrix, 72 h); higher = more inhibition; extreme values may be limits of the assay
[1] = test system: MOLT-13 (T-Lymphoblastic Leukemia)
In short: (§1)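 After 24 hours at 37°C and 5% CO2 in 1536-well plates, cells in DMEM/F12 or RPMI plus 10% FBS received two-drug dose matrices for 72 hours. Viability came from CellTiter-Glo 2.0 luminescence and was scaled as inhibition, anchored at 0 by vehicle wells and at 1 by blank wells. Combination Emax is taken as the second-highest inhibition in the matrix, and Bliss excess as the observed combination effect less EA + EB − EA·EB, with EA and EB the single-agent effects.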

[2] = test system: NAMALWA (Burkitt's Lymphoma)
In short: as §1

[3] = test system: P32-ISH (Burkitt's Lymphoma)
In short: as §1

[4] = test system: PL4 (Pancreatic Carcinoma)
In short: as §1

SK-N-SH (Neuroblastoma) = test system: SK-N-SH (Neuroblastoma)
In short: as §1

[5] = test system: PA-TU-8988T (Pancreatic Carcinoma)
In short: as §1

T47D (Breast Carcinoma) = test system: T47D (Breast Carcinoma)
In short: as §1

[6] = test system: LCLC-103H (Non-Small Cell Lung Carcinoma)
In short: as §1

KALS-1 (Glioblastoma) = test system: KALS-1 (Glioblastoma)
In short: as §1

[7] = test system: MOLP-8 (Plasma Cell Myeloma)
In short: as §1

[8] = test system: T84 (Colorectal Carcinoma)
In short: as §1

[9] = test system: MONO-MAC-6 (Acute Myeloid Leukemia)
In short: as §1

GAK (Melanoma) = test system: GAK (Melanoma)
In short: as §1

[10] = test system: NCI-H1876 (Small Cell Lung Carcinoma)
In short: as §1

[11] = test system: DBTRG-05MG (Glioblastoma)
In short: as §1

[12] = test system: COR-L88 (Small Cell Lung Carcinoma)
In short: as §1

[13] = test system: P30-OHK (B-Lymphoblastic Leukemia)
In short: as §1

[14] = test system: OAW-28 (Ovarian Carcinoma)
In short: as §1

[15] = test system: SNU-407 (Colorectal Carcinoma)
In short: as §1

[16] = test system: SUP-M2 (T-Cell Non-Hodgkin's Lymphoma)
In short: as §1

Row | SMILES | combination Emax [1] | combination Emax [2] | combination Emax [3] | combination Emax [4] | combination Emax (SK-N-SH (Neuroblastoma)) | combination Emax [5] | combination Emax (T47D (Breast Carcinoma)) | combination Emax [6] | combination Emax (KALS-1 (Glioblastoma)) | combination Emax [7] | combination Emax [8] | combination Emax [9] | combination Emax (GAK (Melanoma)) | combination Emax [10] | combination Emax [11] | combination Emax [12] | combination Emax [13] | combination Emax [14] | combination Emax [15] | combination Emax [16]
1 | CC1(C)CCC(CN2CCN(c3ccc(C(=O)NS(=O)(=O)c4ccc(NCC5CCOCC5)c([N+](=O)[O-])c4)c(Oc4cnc5[nH]ccc5c4)c3)CC2)=C(c2ccc(Cl)cc2)C1 [Venetoclax] + CCN(CCO)CCCOc1ccc2c(Nc3cc(CC(=O)Nc4cccc(F)c4)[nH]n3)ncnc2c1 [AZD2811] (first compound max 1 µM, 7x7, partner max 1 µM) | 1 | 0.56 | 0.912 | 0.248 | 0.73 | 0.0634 | 0.266 | 0.333 | 0.661 | 0.406 | 0.127 | 0.981 | 0.242 | 0.742 | 0.228 | 0.667 | 1 | 0.314 | 0.485 | 0.898
2 | CN(CCO)CC[C@H](CSc1ccccc1)Nc1ccc(S(=O)(=O)NC(=O)c2ccc(N3CCC([C@@H](O)c4ccccc4-c4ccc(Cl)cc4)CC3)cc2)cc1S(=O)(=O)C(F)(F)F [AZD4320] + C=CCn1c(=O)c2cnc(Nc3ccc(N4CCN(C)CC4)cc3)nc2n1-c1cccc(C(C)(C)O)n1 [AZD1775] (first compound max 1 µM, partner max 1 µM) | 1 | 0.982 | 0.994 | 0.708 | 0.934 | 0.922 | 0.195 | 0.726 | 0.975 | 0.831 | 0.528 | 0.88 | 0.833 | 1 | 0.92 | 0.978 | 1 | 0.966 | 0.415 | 1
3 | Cc1c2c(nn1C)CSCc1cc(n(C)n1)CSc1cc(c3ccccc3c1)OCCCc1c(C(=O)O)n(C)c3c-2c(Cl)ccc13 [AZD5991] + CN(C)CCCOc1ccc(-c2ccc3ncc4c(c3c2)n(C2CCOCC2)c(=O)n4C)cn1 [AZD0156] (first compound max 1 µM, 7x7, partner max 1 µM) | 1 | 0.996 | 1 | 0.357 | 0.454 | 0.214 | 0.749 | 0.375 | 0.273 | 1 | 0.192 | 1 | 0.266 | 0.629 | 0.221 | 0.3 | 0.71 | 0.25 | 0.676 | 1
4 | Cc1cc2ncnn2cc1Nc1ncc2c(n1)n(C1CCOCC1)c(=O)n2C [AZD7648] + CN(C)CCCOc1ccc(-c2ccc3ncc4c(c3c2)n(C2CCOCC2)c(=O)n4C)cn1 [AZD0156] (first compound max 10 µM, 7x7, partner max 1 µM) | 0.15 | 0.266 | 0.214 | 0.0509 | 0.366 | 0.271 | 0.501 | 0.338 | 0.346 | 0.514 | 0.214 | 0.497 | 0.303 | 0.317 | 0.192 | 0.237 | 0.376 | 0.187 | 0.179 | 0.183
5 | COc1cc2ncnc(Nc3ccc(F)c(Cl)c3)c2cc1OCCCN1CCOCC1 [Gefitinib] + CC(C)n1c(=O)n(C)c2cnc3cc(F)c(-c4ccc(OCCCN5CCCCC5)nc4)cc3c21 [AZD1390] (first compound max 10 µM, 7x7, partner max 0.3 µM) | 0.311 | 0.214 | 0.333 | 0.125 | 0.0891 | 0.15 | 0.147 | 0.195 | 0.127 | 0.413 | 0.227 | 0.42 | 0.226 | 0.178 | 0.0768 | 0.21 | 0.173 | 0.215 | 0.168 | 0.116
6 | Cc1c2c(nn1C)CSCc1cc(n(C)n1)CSc1cc(c3ccccc3c1)OCCCc1c(C(=O)O)n(C)c3c-2c(Cl)ccc13 [AZD5991] + Cc1cc2ncnn2cc1Nc1ncc2c(n1)n(C1CCOCC1)c(=O)n2C [AZD7648] (first compound max 1 µM, 7x7, partner max 10 µM) | 1 | 1 | 1 | 0.386 | 0.481 | 0.319 | 0.475 | 0.363 | 0.377 | 1 | 0.0921 | 1 | 0.305 | 0.629 | 0.214 | 0.297 | 0.649 | 0.264 | 0.675 | 1
7 | NC1(C(=O)N[C@@H](CCO)c2ccc(Cl)cc2)CCN(c2ncnc3[nH]ccc23)CC1 [Capivasertib] + CC(=O)c1c(C)c2cnc(Nc3ccc(N4CCNCC4)cn3)nc2n(C2CCCC2)c1=O [Palbociclib] (first compound max 10 µM, 7x7, partner max 10 µM) | 0.732 | 0.701 | 0.774 | 0.478 | 0.454 | 0.456 | 0.434 | 0.448 | 0.398 | 0.655 | 0.267 | 0.728 | 0.474 | 0.253 | 0.23 | 0.226 | 0.56 | 0.191 | 0.678 | 0.89
8 | CN(CCO)CC[C@H](CSc1ccccc1)Nc1ccc(S(=O)(=O)NC(=O)c2ccc(N3CCC([C@@H](O)c4ccccc4-c4ccc(Cl)cc4)CC3)cc2)cc1S(=O)(=O)C(F)(F)F [AZD4320] + C[C@@H]1COCCN1C2=NC(=NC(=C2)C3(CC3)[S@](=N)(=O)C)C4=C5C=CNC5=NC=C4 [AZD6738] (first compound max 1 µM, 7x7, partner max 10 µM) | 1 | 0.928 | 0.896 | 0.878 | 0.988 | 0.319 | 0.324 | 0.546 | 0.939 | 0.787 | 0.719 | 0.943 | 0.793 | 1 | 0.834 | 0.992 | 1 | 0.957 | 0.709 | 0.998
9 | COc1cccc(OCCCN)c1-c1cc(Nc2cnc(C#N)cn2)n[nH]1 [Prexasertib] + Cc1cc2ncnn2cc1Nc1ncc2c(n1)n(C1CCOCC1)c(=O)n2C [AZD7648] (first compound max 1 µM, 7x7, partner max 10 µM) | 1 | 0.994 | 1 | 0.836 | 0.844 | 0.532 | 0.512 | 0.725 | 0.866 | 0.897 | 0.785 | 0.976 | 0.708 | 0.988 | 0.315 | 0.823 | 0.984 | 0.462 | 0.597 | 1
10 | CN(C)CCCOc1ccc(-c2ccc3ncc4c(c3c2)n(C2CCOCC2)c(=O)n4C)cn1 [AZD0156] + C[C@@H]1COCCN1C2=NC(=NC(=C2)C3(CC3)[S@](=N)(=O)C)C4=C5C=CNC5=NC=C4 [AZD6738] (first compound max 1 µM, 7x7, partner max 10 µM) | 0.925 | 0.96 | 0.951 | 0.718 | 0.87 | 0.476 | 0.282 | 0.55 | 0.868 | 0.848 | 0.668 | 0.858 | 0.703 | 0.938 | 0.251 | 0.8 | 0.877 | 0.39 | 0.742 | 0.985
11 | CN(CCO)CC[C@H](CSc1ccccc1)Nc1ccc(S(=O)(=O)NC(=O)c2ccc(N3CCC([C@@H](O)c4ccccc4-c4ccc(Cl)cc4)CC3)cc2)cc1S(=O)(=O)C(F)(F)F [AZD4320] + CCN(CCO)CCCOc1ccc2c(Nc3cc(CC(=O)Nc4cccc(F)c4)[nH]n3)ncnc2c1 [AZD2811] (first compound max 1 µM, 7x7, partner max 1 µM) | 1 | 0.48 | 0.915 | 0.544 | 0.761 | 0.398 | 0.335 | 0.344 | 0.508 | 0.418 | 0.0513 | 0.959 | 0.257 | 0.998 | 0.775 | 0.974 | 1 | 0.958 | 0.411 | 0.979
12 | Cc1c2c(nn1C)CSCc1cc(n(C)n1)CSc1cc(c3ccccc3c1)OCCCc1c(C(=O)O)n(C)c3c-2c(Cl)ccc13 [AZD5991] + Cn1cnc2c(F)c(Nc3ccc(Br)cc3Cl)c(C(=O)NOCCO)cc21 [Selumetinib] (first compound max 1 µM, 7x7, partner max 3 µM) | 1 | 0.999 | 1 | 0.573 | 0.414 | 0.393 | 0.364 | 0.176 | 0.24 | 1 | 0.406 | 1 | 0.776 | 0.748 | 0.344 | 0.17 | 0.744 | 0.352 | 0.789 | 1
